One block for each compound: values may come before it.
Tests used:
[1] = parameters: species or system DBA/1J mice; settings: mouse, in vivo, po, 100 mg/kg
Procedure: (§1) Among the compounds in accordance with the present invention, each of Compounds 1, 2 and 3 was orally or intraperitoneally administered to eight DBA/1J mice in a dose of 100 mg/kg body weight. […] This seems to indicate that the compounds used in the present invention have no or very little, if any, acute toxicity. Moreover, Compound 1, in a dose of 100 mg/kg body weight, or Compound 3, in a dose of 30 mg/kg body weight, was orally administered to eight mice of the aforesaid strain for 40 days. […] Thus, the compounds of the present invention have little subacute toxicity. Since other compounds in accordance with the present invention are estimated to have similar properties, the compounds of the present invention can be used very safely.

Acute toxicity in mice = format: in vivo, DBA/1J mice; settings: 100 mg/kg; for evidence of toxicity, single administration: mouse, in vivo; for mortality, single administration: oral or intraperitoneal, eight DBA/1J mice
Procedure: as §1

[2] = test system: collagen-induced arthritis; assay: Inhibitory Effect on Collagen-Induced Arthritis (No. 1), sole thickness; format: in vivo, DBA/1J mice; settings: mean ± SD
Procedure: (§2) The preventive effect on the onset of collagen-induced arthritis was tested by using DBA/1J mice in groups of 5-8. Specifically, type II collagen was mixed with an equal volume of Freund's complete adjuvant and emulsified to prepare a 1 mg/ml emulsion. Mice were sensitized by administering 0.1 ml of this emulsion intracutaneously to the root of the tail. After 21 days, the mice were additionally immunized by emulsifying type II collagen in the same manner as before and administering 0.1 ml of the emulsion intraperitoneally so as to induce arthritis.
Starting from the day of the first sensitization with type II collagen, Compound 1 was orally administered, once a day, for 43 days in a dose of 10 or 30 mg/kg body weight. Similarly, each of Compounds 2 and 3 was intraperitoneally administered, once a day, for 43 days in a dose of 1 or 10 mg/kg body weight. Their inhibitory effect on collagen-induced arthritis was evaluated by measuring the sole thicknesses of the hind legs periodically with digital vernier calipers.

[3] = test system: neogenesis of tumor vessels induced by the transplanted mouse tumor S180; assay: Inhibitory Effect on Vascularization Using the Mouse Back Subcutaneous Transplantation Method; format: in vivo, male ICR mouse; settings: for Vascularization score: oral 100 mg/kg, 5 days, mean ± SE
Procedure: The inhibitory effect of Compounds 1 and 3 in accordance with the present invention on the neogenesis of tumor vessels induced by the transplanted mouse tumor S180 was tested using the mouse back subcutaneous transplantation method. Specifically, 1×10^7 S180 cells were injected into a chamber formed by attaching a Millipore filter having a pore size of 0.45 μm to either side of a Millipore ring. After the injection hole was stopped up, this chamber was transplanted into an air sac formed beneath the skin of the back of a male ICR mouse (9-10 weeks old). Starting from the day of transplantation, a test compound or a solvent control comprising a 0.5% carboxymethylcellulose solution was orally administered for 5 days. After the skin was separated on the fifth day of transplantation, an O-ring of 10 mm internal diameter having the same shape as the Millipore ring was placed on the part of the skin which had been in contact with the chamber, observed under a stereoscopic microscope, and photographed.
In the photographs so taken, the degree of vascularization was rated 0, 1, 2 or 3 according to the number of 3 mm or longer tortuous blood vessels characteristic of tumoral vessels, and scored on the following basis.
0: No tumoral vessel was observed.
1: One tumoral vessel was observed.
2: Two tumoral vessels were observed.
3: Three or more tumoral vessels were observed.

carrageenin edema = assay: Effect on Carrageenin Edema; format: in vivo, ICR mice
Procedure: The effect on carrageenin edema was tested by using ICR mice in groups of 6-7. Specifically, Compound 3 was orally administered thereto in a dose of 3 or 30 mg/kg body weight. As a positive control drug, indomethacin was similarly administered in a dose of 20 mg/kg body weight. After 30 minutes, 25 μl of a 1% carrageenin solution was subcutaneously injected into the sole of the right hind leg. Two hours after the administration of carrageenin, the thickness of the sole was measured with digital vernier calipers, and the degree of edema (%) based on the thickness measured before administration was calculated.

[4] = test system: collagen-induced arthritis; assay: Inhibitory Effect on Collagen-Induced Arthritis (No. 2), arthritis score; format: in vivo, DBA/1J mice; settings: oral
Procedure: as §2
Animals having arthritis induced in the same manner as described above were used in groups of 7-8. Compound 3 was orally administered, once a day, for 21 days following the additional immunization in a dose of 1, 3 or 10 mg/kg body weight. For comparative purposes, MI43 was similarly administered to another group in a dose of 30 mg/kg body weight. According to the degree of rubor, swelling and rigidity in each of the forelegs and hind legs of the experimental animals, their inhibitory effect on collagen-induced arthritis was evaluated on the following basis by a score ranging from 0 to 4 (with a maximum value of 16).
0: No symptom is observed.
2: Two or more small joints, or a relatively large joint such as that of the wrist or ankle, show rubor or swelling.
4: The total swelling of the hand or foot reaches its peak and, moreover, is accompanied by joint rigidity.

[5] = test system: various animal cells and human cancer cells; settings: cited from earlier work
[6] = Levels of Orally Administered Test Compounds in Blood Plasma; format: in vivo, male ICR mice
Procedure: Each of Compound 3 and MI43 was orally administered to fasted male ICR mice (weighing 18-21 g) in a dose of 25 mg/kg. Blood samples were collected from the mice 5 minutes, 30 minutes, 4 hours, 8 hours and 24 hours after administration (3 mice per point for Compound 3 and 5 mice per point for MI43). These blood samples were centrifuged to obtain blood plasma samples. Each of the blood plasma samples was subjected to the following pretreatment and then analyzed by high-performance liquid chromatography (HPLC). 1.8 ml of a saturated aqueous solution of ammonium sulfate and 1.0 ml of methanol were added to and mixed with 0.2 ml of the blood plasma sample. This mixture was shaken with 3.5 ml of ethyl acetate. After this mixture was centrifuged, the ethyl acetate layer was separated. Moreover, the aqueous layer was shaken with 3.5 ml of ethyl acetate, followed by centrifugation. The ethyl acetate layer thus obtained was combined with the previously separated ethyl acetate layer, and this mixture was evaporated to dryness under reduced pressure. The resulting residue was redissolved in 0.2 ml of a 50% aqueous solution of acetonitrile and used as a sample for HPLC.
The analytical conditions for HPLC (using the CCTD system manufactured by Toso Co., Ltd.) were as follows: A YMC A-312 column (ODS 6×150 mm; manufactured by YMC Co., Ltd.) was used as the column. As the mobile phase, a 60:40 mixture of acetonitrile and 0.1% aqueous TFA was used for Compound 3, and a 40:60 mixture of acetonitrile and 0.1% aqueous TFA was used for MI43. The rest compound was eluted at a flow velocity of 1.0 ml/min and detected by UV light at 244 nm.

[7] = test system: collagen-induced arthritis; settings: oral administration, mice; cited from earlier work
adjuvant arthritis = settings: oral administration, rats; cited from earlier work

Structure (SMILES): COc1cc(O)c2c(=O)oc(C(=O)O)cc2c1 [Compound 1, 8-hydroxy-6-methoxy-1-oxo-1H-2-benzopyran-3-carboxylic Acid]
evidence of toxicity, 40 days [1]: no animal showed evidences of toxicity
mortality, 40 days [1]: No animal died
evidence of toxicity, single administration (Acute toxicity in mice): no animal showed evidences of toxicity
mortality, single administration (Acute toxicity in mice): No animal died
Sole thickness (sum of left and right, mm), after 37 days ([2]; oral, 10 mg/kg/day, **p < 0.01 vs control (8.02 ± 0.82)): 6.44 ± 0.40 mm
Sole thickness (sum of left and right, mm), after 37 days ([2]; oral, 30 mg/kg/day, **p < 0.01 vs control (8.02 ± 0.82)): 6.12 ± 0.22 mm
Vascularization score ([3]; n = 9, p < 0.05 vs control (3.00 ± 0.00), Table 3): 1.67 ± 0.53
inhibition of vascularization induced by tumor cell S180 (in words) ([3]; oral, 100 mg/kg body weight): significantly inhibited vascularization

Structure (SMILES): COc1cc(O)c2c(=O)oc(CC(=O)O)cc2c1 [Compound 2, (8-hydroxy-6-methoxy-1-oxo-1H-2-benzopyran-3-yl)acetic Acid]
evidence of toxicity, single administration (Acute toxicity in mice): no animal showed evidences of toxicity
mortality, single administration (Acute toxicity in mice): No animal died
Sole thickness (sum of left and right, mm), after 37 days ([2]; intraperitoneal, 1 mg/kg/day, *p < 0.05 vs control (8.02 ± 0.82)): 6.81 ± 1.07 mm
Sole thickness (sum of left and right, mm), after 37 days ([2]; intraperitoneal, 10 mg/kg/day, *p < 0.05 vs control (8.02 ± 0.82)): 7.19 ± 0.40 mm

Structure (SMILES): COc1ccc2c(c1)c(CC(=O)O)c(C)n2C(=O)c1ccc(Cl)cc1 [Indomethacin, reference compound]
effect on carrageenin edema (in words) (carrageenin edema; 20 mg/kg): significan inhibitory effect
Degree of edema (%) (carrageenin edema; oral 20 mg/kg, 2 h after carrageenin, mean ± SE, **p < 0.01 vs control (47.4 ± 2.8)): 18.5 ± 3.5%

concentration at 5 min ([6]; mouse, plasma, oral 25 mg/kg, 5 min, read-out: Concentration of unchanged M143 in blood plasma, mean): 811 ng/mL
concentration at 0.5 h ([6]; mouse, plasma, oral 25 mg/kg, 30 min, read-out: Concentration of unchanged M143 in blood plasma, mean): 155 ng/mL
concentration at 4 h ([6]; mouse, plasma, oral 25 mg/kg, 4 hr, read-out: Concentration of unchanged M143 in blood plasma, mean): 48 ng/mL
Tmax ([6]; mouse, plasma, unchanged compound, oral 25 mg/kg, read-out: time of peak / highest plasma level after administration (converted)): 5 min
number of metabolites detected in plasma ([6]; oral 25 mg/kg): 5
plasma concentration course after 5 minutes (in words) ([6]; unchanged MI43, oral 25 mg/kg): decreased sharply
Structure (SMILES): COc1cc(O)c2c(=O)oc(CO)cc2c1 [MI43, 3-hydroxymethyl-6-methoxy-8-hydroxy-1H-2-benzopyran-1-one, reference compound]
reduction in arthritis score (in words) ([4]; 30 mg/kg body weight): no significant reduction in arthritis score
Score after 37 days ([4]; 30 mg/kg/day, mean ± SE, maximum 16, control 9.25 ± 1.35): 5.29 ± 1.77
Vascularization score ([3]; n = 11, control 2.93 ± 0.07, Table 4): 1.09 ± 0.39
growth-inhibiting activity (in words) [5]: growth-inhibiting activity against various animal cells and human cancer cells
inhibition of collagen-induced arthritis (in words) [7]: significantly inhibit adjuvant arthritis in rats and collagen-induced arthritis in mice
inhibition of adjuvant arthritis (in words) (adjuvant arthritis): significantly inhibit adjuvant arthritis in rats

From US6020363A, “Isocoumarin derivatives and use thereof in drugs” (Mercian Corporation, priority 1998, dated 2000)
